{
  "source": "patent US20150225762A1",
  "about": "“SAME-DAY BLOOD CULTURE WITH DIGITAL MICROSCOPY” (ACCELERATE DIAGNOSTICS, INC., priority 2012, published 2015)",
  "key": {"Ecol 35218 [1]": {"tested_on": "Ecol 35218", "experiment": "Plate count of live bacteria after killing treatment", "assay_type": "cell-based, E. coli"}, "Paer 27853 [2]": {"tested_on": "Paer 27853", "experiment": "Plate count of live bacteria after killing treatment", "assay_type": "cell-based, P. aeruginosa"}, "Saur 12600 [3]": {"tested_on": "Saur 12600", "experiment": "Plate count of live bacteria after killing treatment", "assay_type": "cell-based, S. aureus"}, "Ecol 35218 [4]": {"tested_on": "Ecol 35218", "experiment": "FISH detection of live and killed bacteria with or without protease digestion", "assay_type": "cell-based, E. coli"}, "Kpne 13882 [5]": {"tested_on": "Kpne 13882", "experiment": "FISH detection of live and killed bacteria with or without protease digestion", "assay_type": "cell-based, K. pneumoniae"}, "Paer 27853 [6]": {"tested_on": "Paer 27853", "experiment": "FISH detection of live and killed bacteria with or without protease digestion", "assay_type": "cell-based, P. aeruginosa"}, "Saur 12600 [7]": {"tested_on": "Saur 12600", "experiment": "FISH detection of live and killed bacteria with or without protease digestion", "assay_type": "cell-based, S. aureus"}, "Kpne 13882 [8]": {"tested_on": "Kpne 13882", "experiment": "Plate count of live bacteria after killing treatment"}, "[9]": {"conditions": "0 hr, after gentamycin 100 micrograms per mL 1 hour or 80% ethanol"}, "[10]": {"conditions": "gentamycin 1 hour or 80% ethanol"}, "[11]": {"conditions": "1 hour, with protease (0.2 mg/mL Pronase)"}, "[12]": {"conditions": "1 hour, with protease (0.2 mg/mL Pronase), cells live or pre-killed as labelled"}, "[13]": {"conditions": "4 hour, with protease (0.2 mg/mL Pronase)"}, "[14]": {"conditions": "4 hour, with protease (0.2 mg/mL Pronase), cells live or pre-killed as labelled"}},
  "data": [
    {"substance": "gentamycin", "values": [
      {"measurement": "Conc of live bacteria by plating", "setting": "Ecol 35218 [1]; [9]", "result": 10, "unit": "cfu/mL"},
      {"measurement": "Killing by plating, in words", "setting": "Ecol 35218 [1]; [10]", "result": "substantially killed"},
      {"measurement": "Conc of live bacteria by plating", "setting": "Paer 27853 [2]; [9]", "result": 20, "unit": "cfu/mL"},
      {"measurement": "Killing by plating, in words", "setting": "Paer 27853 [2]; [10]", "result": "substantially killed"},
      {"measurement": "Conc of live bacteria by plating", "setting": "Saur 12600 [3]; [9]", "result": "2 × 10^3 cfu/mL"},
      {"measurement": "Killing by plating, in words", "setting": "Saur 12600 [3]; [10]", "result": "a significant number of S. aureus remained alive"},
      {"measurement": "FISH Conc", "setting": "Ecol 35218 [4]; 1 hour, no protease", "result": "8.8 × 10^6 cells/mL"},
      {"measurement": "Positive Detection?", "setting": "Ecol 35218 [4]; 1 hour, no protease", "result": "Yes (A detection threshold of 1×10^4 cells per mL was used as the threshold for a positive call in the FISH assay)"},
      {"measurement": "Positive Detection?", "setting": "Ecol 35218 [4]; [11]", "result": "Yes (A detection threshold of 1×10^4 cells per mL was used as the threshold for a positive call in the FISH assay)"},
      {"measurement": "FISH Conc", "setting": "Ecol 35218 [4]; [12]", "result": "5.5 × 10^5 cells/mL"},
      {"measurement": "FISH Conc", "setting": "Ecol 35218 [4]; 4 hour, no protease", "result": "4.8 × 10^5 cells/mL"},
      {"measurement": "Positive Detection?", "setting": "Ecol 35218 [4]; 4 hour, no protease", "result": "Yes (A detection threshold of 1×10^4 cells per mL was used as the threshold for a positive call in the FISH assay)"},
      {"measurement": "Positive Detection?", "setting": "Ecol 35218 [4]; [13]", "result": "Yes (A detection threshold of 1×10^4 cells per mL was used as the threshold for a positive call in the FISH assay)"},
      {"measurement": "FISH Conc", "setting": "Ecol 35218 [4]; [14]", "result": "4.5 × 10^5 cells/mL"},
      {"measurement": "FISH Conc", "setting": "Kpne 13882 [5]; 1 hour, no protease", "result": "1.7 × 10^5 cells/mL"},
      {"measurement": "Positive Detection?", "setting": "Kpne 13882 [5]; 1 hour, no protease", "result": "Yes (A detection threshold of 1×10^4 cells per mL was used as the threshold for a positive call in the FISH assay)"},
      {"measurement": "Positive Detection?", "setting": "Kpne 13882 [5]; [11]", "result": "Yes (A detection threshold of 1×10^4 cells per mL was used as the threshold for a positive call in the FISH assay)"},
      {"measurement": "FISH Conc", "setting": "Kpne 13882 [5]; [12]", "result": "7.7 × 10^4 cells/mL"},
      {"measurement": "FISH Conc", "setting": "Kpne 13882 [5]; 4 hour, no protease", "result": "<1 × 10^3 cells/mL"},
      {"measurement": "Positive Detection?", "setting": "Kpne 13882 [5]; 4 hour, no protease", "result": "No (A detection threshold of 1×10^4 cells per mL was used as the threshold for a positive call in the FISH assay)"},
      {"measurement": "Positive Detection?", "setting": "Kpne 13882 [5]; [13]", "result": "Yes (A detection threshold of 1×10^4 cells per mL was used as the threshold for a positive call in the FISH assay)"},
      {"measurement": "FISH Conc", "setting": "Kpne 13882 [5]; [14]", "result": "1.7 × 10^4 cells/mL"},
      {"measurement": "FISH Conc", "setting": "Paer 27853 [6]; 1 hour, no protease", "result": "3.7 × 10^5 cells/mL"},
      {"measurement": "Positive Detection?", "setting": "Paer 27853 [6]; 1 hour, no protease", "result": "Yes (A detection threshold of 1×10^4 cells per mL was used as the threshold for a positive call in the FISH assay)"},
      {"measurement": "Positive Detection?", "setting": "Paer 27853 [6]; [11]", "result": "Yes (A detection threshold of 1×10^4 cells per mL was used as the threshold for a positive call in the FISH assay)"},
      {"measurement": "FISH Conc", "setting": "Paer 27853 [6]; [12]", "result": "5.3 × 10^4 cells/mL"},
      {"measurement": "FISH Conc", "setting": "Paer 27853 [6]; 4 hour, no protease", "result": "3.0 × 10^5 cells/mL"},
      {"measurement": "Positive Detection?", "setting": "Paer 27853 [6]; 4 hour, no protease", "result": "Yes (A detection threshold of 1×10^4 cells per mL was used as the threshold for a positive call in the FISH assay)"},
      {"measurement": "Positive Detection?", "setting": "Paer 27853 [6]; [13]", "result": "No (A detection threshold of 1×10^4 cells per mL was used as the threshold for a positive call in the FISH assay)"},
      {"measurement": "FISH Conc", "setting": "Paer 27853 [6]; [14]", "result": "6.7 × 10^3 cells/mL"},
      {"measurement": "FISH Conc", "setting": "Saur 12600 [7]; 1 hour, no protease", "result": "1.4 × 10^5 cells/mL"},
      {"measurement": "Positive Detection?", "setting": "Saur 12600 [7]; 1 hour, no protease", "result": "Yes (A detection threshold of 1×10^4 cells per mL was used as the threshold for a positive call in the FISH assay)"},
      {"measurement": "Positive Detection?", "setting": "Saur 12600 [7]; [11]", "result": "Yes (A detection threshold of 1×10^4 cells per mL was used as the threshold for a positive call in the FISH assay)"},
      {"measurement": "FISH Conc", "setting": "Saur 12600 [7]; [12]", "result": "1.1 × 10^5 cells/mL"},
      {"measurement": "FISH Conc", "setting": "Saur 12600 [7]; 4 hour, no protease", "result": "3.0 × 10^4 cells/mL"},
      {"measurement": "Positive Detection?", "setting": "Saur 12600 [7]; 4 hour, no protease", "result": "Yes (A detection threshold of 1×10^4 cells per mL was used as the threshold for a positive call in the FISH assay)"},
      {"measurement": "Positive Detection?", "setting": "Saur 12600 [7]; [13]", "result": "Yes (A detection threshold of 1×10^4 cells per mL was used as the threshold for a positive call in the FISH assay)"},
      {"measurement": "FISH Conc", "setting": "Saur 12600 [7]; [14]", "result": "3.0 × 10^4 cells/mL"},
      {"measurement": "Conc of live bacteria by plating", "setting": "Kpne 13882 [8]; [9]", "result": 60, "unit": "cfu/mL"},
      {"measurement": "Killing by plating, in words", "setting": "Kpne 13882 [8]; [10]", "result": "substantially killed"}
    ]}
  ]
}
